From PubChem BioAssay AID256 (DTP/NCI, 2004)
Values joined by “and” are separate entries in the source; they are usually repeats but may differ in a detail not shown here. Equal entries are not always repeated. Inconclusive results and toxic doses are left out. Rule for the calls: active = survival T/C of 150% or more; inactive = T/C below 125% in these data.

Tested on: CD2F1 mice, L1210 leukemia ip, survival T/C
Assay: NCI In Vivo Anticancer Drug Screen. Data for tumor model L1210 Leukemia (intraperitoneal) in CD2F1 (CDF1) mice
Settings: higher = longer survival
Summary of the method: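 Ratio T/C, where T is the treated-group value and C the vehicle-dosed control value, from mice implanted with a transplantable tumor.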

Measured: T/C

Nc1ncnc2c1ccn2C1OC(CO)C(O)C1O (stereo not drawn)
inactive: endpoint: mean survival time, dose: 0.13 mg/kg/injection, schedule: Q01DX009 (ip), vehicle: saline 104 % of control and 106 % of control | endpoint: mean survival time, dose: 0.16 mg/kg/injection, schedule: Q01DX010 (ip), vehicle: saline 98 % of control and 108 % of control | endpoint: mean survival time, dose: 0.25 mg/kg/injection, schedule: Q01DX009 (ip), vehicle: saline 104 % of control and 110 % of control | endpoint: mean survival time, dose: 0.32 mg/kg/injection, schedule: Q01DX010 (ip), vehicle: saline 104 % of control and 111 % of control | endpoint: mean survival time, dose: 0.5 mg/kg/injection, schedule: Q01DX009 (ip), vehicle: saline 103 % of control and 104 % of control | endpoint: mean survival time, dose: 0.5 mg/kg/injection, schedule: Q03HX008 (ip), vehicle: carboxymethylcellulose (CMC) 102 % of control | endpoint: mean survival time, dose: 0.5 mg/kg/injection, schedule: Q06HX004 (ip), vehicle: carboxymethylcellulose (CMC) 101 % of control | endpoint: mean survival time, dose: 0.63 mg/kg/injection, schedule: Q01DX009 (ip), vehicle: saline 114 % of control | endpoint: mean survival time, dose: 0.63 mg/kg/injection, schedule: Q01DX010 (ip), vehicle: saline 98 % of control and 107 % of control | endpoint: mean survival time, dose: 1.0 mg/kg/injection, schedule: Q01DX001 (ip), vehicle: carboxymethylcellulose (CMC) 109 % of control | endpoint: mean survival time, dose: 1.0 mg/kg/injection, schedule: Q01DX009 (ip), vehicle: saline 99 % of control and 107 % of control | endpoint: mean survival time, dose: 1.0 mg/kg/injection, schedule: Q03HX008 (ip), vehicle: carboxymethylcellulose (CMC) 104 % of control | endpoint: mean survival time, dose: 1.0 mg/kg/injection, schedule: Q06HX004 (ip), vehicle: carboxymethylcellulose (CMC) 104 % of control | endpoint: mean survival time, dose: 1.0 mg/kg/injection, schedule: Q#A X002 (ip), vehicle: carboxymethylcellulose (CMC) 108 % of control | endpoint: mean survival time, dose: 1.25 mg/kg/injection, schedule: Q01DX009 (ip), vehicle: saline 118 % of control | endpoint: mean survival time, dose: 1.25 mg/kg/injection, schedule: Q01DX010 (ip), vehicle: saline 118 % of control and 119 % of control | endpoint: mean survival time, dose: 2.0 mg/kg/injection, schedule: Q03HX008 (ip), vehicle: carboxymethylcellulose (CMC) 117 % of control | endpoint: mean survival time, dose: 2.0 mg/kg/injection, schedule: Q06HX004 (ip), vehicle: carboxymethylcellulose (CMC) 107 % of control | endpoint: mean survival time, dose: 2.0 mg/kg/injection, schedule: Q#A X002 (ip), vehicle: carboxymethylcellulose (CMC) 110 % of control | endpoint: mean survival time, dose: 2.5 mg/kg/injection, schedule: Q01DX009 (ip), vehicle: saline 116 % of control | endpoint: mean survival time, dose: 4.0 mg/kg/injection, schedule: Q01DX001 (ip), vehicle: carboxymethylcellulose (CMC) 120 % of control | endpoint: mean survival time, dose: 4.0 mg/kg/injection, schedule: Q03HX008 (ip), vehicle: carboxymethylcellulose (CMC) 108 % of control | endpoint: mean survival time, dose: 4.0 mg/kg/injection, schedule: Q06HX004 (ip), vehicle: carboxymethylcellulose (CMC) 114 % of control | endpoint: mean survival time, dose: 8.0 mg/kg/injection, schedule: Q01DX001 (ip), vehicle: carboxymethylcellulose (CMC) 124 % of control | endpoint: mean survival time, dose: 8.0 mg/kg/injection, schedule: Q03HX008 (ip), vehicle: carboxymethylcellulose (CMC) 118 % of control | endpoint: mean survival time, dose: 8.0 mg/kg/injection, schedule: Q06HX004 (ip), vehicle: carboxymethylcellulose (CMC) 116 % of control | endpoint: mean survival time, dose: 8.0 mg/kg/injection, schedule: Q#A X002 (ip), vehicle: carboxymethylcellulose (CMC) 122 % of control | endpoint: median survival time, dose: 0.06 mg/kg/injection, schedule: Q03HX024 (ip), vehicle: other 107 % of control | endpoint: median survival time, dose: 0.13 mg/kg/injection, schedule: Q03HX008 (ip), vehicle: other 102 % of control | endpoint: median survival time, dose: 0.13 mg/kg/injection, schedule: Q03HX016 (ip), vehicle: other 96 % of control | endpoint: median survival time, dose: 0.13 mg/kg/injection, schedule: Q03HX024 (ip), vehicle: other 100 % of control | endpoint: median survival time, dose: 0.25 mg/kg/injection, schedule: Q01DX009 (ip), vehicle: other 94 % of control | endpoint: median survival time, dose: 0.25 mg/kg/injection, schedule: Q01DX009 (sc), vehicle: other 93 % of control | endpoint: median survival time, dose: 0.25 mg/kg/injection, schedule: Q03HX008 (ip), vehicle: other 96 % of control | endpoint: median survival time, dose: 0.25 mg/kg/injection, schedule: Q03HX016 (ip), vehicle: other 94 % of control | endpoint: median survival time, dose: 0.25 mg/kg/injection, schedule: Q03HX024 (ip), vehicle: other 101 % of control | endpoint: median survival time, dose: 0.5 mg/kg/injection, schedule: Q01DX009 (ip), vehicle: other 88 % of control | endpoint: median survival time, dose: 0.5 mg/kg/injection, schedule: Q01DX009 (oral), vehicle: other 99 % of control | endpoint: median survival time, dose: 0.5 mg/kg/injection, schedule: Q01DX009 (sc), vehicle: other 98 % of control | endpoint: median survival time, dose: 0.5 mg/kg/injection, schedule: Q03HX008 (ip), vehicle: other 100 % of control | endpoint: median survival time, dose: 0.5 mg/kg/injection, schedule: Q03HX016 (ip), vehicle: other 101 % of control | endpoint: median survival time, dose: 0.5 mg/kg/injection, schedule: Q03HX024 (ip), vehicle: other 96 % of control | endpoint: median survival time, dose: 0.5 mg/kg/injection, schedule: Q04DX003 (ip), vehicle: other 98 % of control | endpoint: median survival time, dose: 1.0 mg/kg/injection, schedule: Q01DX001 (ip), vehicle: other 102 % of control | endpoint: median survival time, dose: 1.0 mg/kg/injection, schedule: Q01DX001 (sc), vehicle: other 104 % of control | endpoint: median survival time, dose: 1.0 mg/kg/injection, schedule: Q01DX009 (ip), vehicle: other 92 % of control | endpoint: median survival time, dose: 1.0 mg/kg/injection, schedule: Q01DX009 (oral), vehicle: other 99 % of control | endpoint: median survival time, dose: 1.0 mg/kg/injection, schedule: Q01DX009 (sc), vehicle: other 98 % of control | endpoint: median survival time, dose: 1.0 mg/kg/injection, schedule: Q03HX008 (ip), vehicle: other 99 % of control | endpoint: median survival time, dose: 1.0 mg/kg/injection, schedule: Q03HX016 (ip), vehicle: other 93 % of control | endpoint: median survival time, dose: 1.0 mg/kg/injection, schedule: Q04DX003 (ip), vehicle: other 99 % of control | endpoint: median survival time, dose: 1.0 mg/kg/injection, schedule: Q08DX002 (ip), vehicle: other 108 % of control | endpoint: median survival time, dose: 2.0 mg/kg/injection, schedule: Q01DX001 (ip), vehicle: other 111 % of control | endpoint: median survival time, dose: 2.0 mg/kg/injection, schedule: Q01DX001 (oral), vehicle: other 99 % of control | endpoint: median survival time, dose: 2.0 mg/kg/injection, schedule: Q01DX001 (sc), vehicle: other 103 % of control | endpoint: median survival time, dose: 2.0 mg/kg/injection, schedule: Q01DX009 (oral), vehicle: other 100 % of control | endpoint: median survival time, dose: 2.0 mg/kg/injection, schedule: Q01DX009 (sc), vehicle: other 91 % of control | endpoint: median survival time, dose: 2.0 mg/kg/injection, schedule: Q04DX003 (ip), vehicle: other 111 % of control | endpoint: median survival time, dose: 2.0 mg/kg/injection, schedule: Q08DX002 (ip), vehicle: other 104 % of control | endpoint: median survival time, dose: 4.0 mg/kg/injection, schedule: Q01DX001 (ip), vehicle: other 113 % of control | endpoint: median survival time, dose: 4.0 mg/kg/injection, schedule: Q01DX001 (oral), vehicle: other 96 % of control | endpoint: median survival time, dose: 4.0 mg/kg/injection, schedule: Q01DX001 (sc), vehicle: other 99 % of control | endpoint: median survival time, dose: 4.0 mg/kg/injection, schedule: Q01DX009 (oral), vehicle: other 101 % of control | endpoint: median survival time, dose: 4.0 mg/kg/injection, schedule: Q01DX009 (sc), vehicle: other 93 % of control | endpoint: median survival time, dose: 4.0 mg/kg/injection, schedule: Q04DX003 (ip), vehicle: other 106 % of control | endpoint: median survival time, dose: 4.0 mg/kg/injection, schedule: Q08DX002 (ip), vehicle: other 114 % of control | endpoint: median survival time, dose: 8.0 mg/kg/injection, schedule: Q01DX001 (ip), vehicle: other 110 % of control | endpoint: median survival time, dose: 8.0 mg/kg/injection, schedule: Q01DX001 (oral), vehicle: other 101 % of control | endpoint: median survival time, dose: 8.0 mg/kg/injection, schedule: Q01DX001 (sc), vehicle: other 100 % of control | endpoint: median survival time, dose: 8.0 mg/kg/injection, schedule: Q01DX009 (oral), vehicle: other 103 % of control | endpoint: median survival time, dose: 8.0 mg/kg/injection, schedule: Q04DX003 (ip), vehicle: other 90 % of control | endpoint: median survival time, dose: 8.0 mg/kg/injection, schedule: Q08DX002 (ip), vehicle: other 108 % of control | endpoint: median survival time, dose: 16.0 mg/kg/injection, schedule: Q01DX001 (oral), vehicle: other 100 % of control | endpoint: median survival time, dose: 32.0 mg/kg/injection, schedule: Q01DX001 (oral), vehicle: other 86 % of control

Nc1ccc2cc(S(=O)(=O)O)cc(O)c2c1
inactive: endpoint: mean survival time, dose: 100.0 mg/kg/injection, schedule: Q04DX003 (ip), vehicle: saline with Tween-80 98 % of control | endpoint: mean survival time, dose: 200.0 mg/kg/injection, schedule: Q04DX003 (ip), vehicle: saline with Tween-80 102 % of control | endpoint: mean survival time, dose: 400.0 mg/kg/injection, schedule: Q04DX003 (ip), vehicle: saline with Tween-80 98 % of control

COc1ccc(NC(=O)Oc2cc(=O)oc3ccccc23)c(Cl)c1
inactive: endpoint: mean survival time, dose: 50.0 mg/kg/injection, schedule: Q01DX009 (ip), vehicle: Klucel (hydroxypropylcellulose) (HPC) 107 % of control | endpoint: mean survival time, dose: 100.0 mg/kg/injection, schedule: Q01DX009 (ip), vehicle: Klucel (hydroxypropylcellulose) (HPC) 96 % of control | endpoint: mean survival time, dose: 200.0 mg/kg/injection, schedule: Q01DX009 (ip), vehicle: Klucel (hydroxypropylcellulose) (HPC) 100 % of control

COc1ccc(OC)c(CCc2cc(OC)ccc2OC)c1
inactive: endpoint: mean survival time, dose: 12.5 mg/kg/injection, schedule: Q04DX003 (ip), vehicle: other 97 % of control | endpoint: mean survival time, dose: 25.0 mg/kg/injection, schedule: Q04DX003 (ip), vehicle: other 86 % of control | endpoint: mean survival time, dose: 50.0 mg/kg/injection, schedule: Q04DX003 (ip), vehicle: other 97 % of control
